Results published in patent US7786152B2, “Compound” (priority 2002, dated 2010).

Legend:
[1] = biological target: T1, human hepatic microsomal 11β-HSD1 (Homo sapiens, UniProt P28845); experiment: 11β HSD1 TLC format assay with human hepatic microsomes; type: biochemical; settings: Lineweaver-Burke, 10 μg microsomal protein, 30 minutes at 37° C., read-out: apparent Km for cortisone
T1 construct: the enzyme source, native hepatic enzyme compared to recombinant enzyme; tissue XenoTech H0610/Lot 0210078; host or cells: human hepatic microsomes
Experimental: 11β-HSD1 activity in rat and human hepatic microsomes was evaluated, to determine the minimum microsomal protein concentrations required for measurement of enzyme activity. […] The assay was performed in Buffer 2 and the cortisone concentration used was 2 μM containing 0.5 μCi [^3H]-cortisone per incubation. Microsomes were tested at concentrations ranging from 50 μg to 400 μg protein per incubation in a final incubation volume of 100 μl in glass tubes. Samples were incubated for 1 h in a shaking water bath at 37° C. and the assay was stopped by addition of 1 ml ethyl acetate. To correct for recovery, 50 μl [^14C]-cortisol was added to the samples followed by 200 μl 0.05% CaCl2. The samples were vortex mixed and centrifuged as described above. The upper organic phase was removed and dried down, and the residue dissolved in 100 μl methanol and 50 μl aliquots were spotted onto TLC plates, which were run as described above. Samples were counted on a TriCarb liquid scintillation counter using a dual label programme. Recovery efficiency was determined from the DPM obtained in 50 μl [^14C]-cortisol solution, which was counted with the samples.
Lower human microsome protein concentrations were evaluated; 3.7 μg to 100 μg per sample. The time course of activity was also determined, from 0 to 60 minutes at 37° C. The extraction conditions were as described above. […]

Human 11βHSD1 = biological target: T2, Human 11βHSD1 (Homo sapiens, UniProt P28845); experiment: 11β HSD1 cortisol radioimmunoassay (RIA) with human hepatic microsomes; type: biochemical; settings: RIA format; Lineweaver-Burke; Buffer 3, 10 μg/well microsomal protein, 30 min; read-out: apparent Km
T2 construct: the enzyme source, native hepatic enzyme compared to recombinant enzyme; tissue XenoTech H0610/Lot 0210078; host or cells: human hepatic microsomes
Experimental: Biological Assay Development Using Human 11β-Hydroxysteroid Dehydrogenase Type 1. Standard Operating Procedure for the 11β-Hydroxysteroid Dehydrogenase Type 1 Cortisol Radioimmunoassay. 11β HSD1 Cortisol RIA
Enzyme assay buffer: 30 mM Tris-HCL, pH 7.2 containing 1 mM EDTA
Antibody binding buffer: 50 mM Tris-HCL, pH 8, containing 0.1 M NaCl and 0.1% gelatin
Dilute into assay buffer 1 in 25. Also dilute neat DMSO 1 in 25 into assay buffer for controls.
Dilute this 1 in 50 into assay buffer.
Prepare NADPH as a 1.8 mg/ml solution in assay buffer.
Mix these 3 solutions 1:1:1 to make a solution of sufficient volume for 25 μl additions to each sample. Add 0.5 μCi tritiated cortisone per 25 μl and mix the solution well.
Microsome preparation: Dilute stock 20 mg/ml solution 1 in 100 with assay buffer.
Dextran coated charcoal preparation: Make a 20 mg/ml solution in antibody binding buffer and chill on ice.
Enzyme assay: To a u-bottom polypropylene 96 well plate add:
25 μl compound dilution or diluted DMSO to controls, NSB's and blanks
10 μl 1 mM GA in DMSO (enzyme stop solution) to blanks
25 μl substrate mixture to all samples
50 μl diluted microsomes to all samples
Incubate plate for 30 min at 37° C. shaking
Add 10 μl enzyme stop solution to all wells except the blanks
Add 100 μl antibody solution to all wells except the NSB's, add antibody binding buffer to these wells
Incubate at 37° C. for 1 h
Chill plate on ice for 15 min
Add 50 μl/well charcoal solution and mix with an 8-channel pipette (4-5 aspirations)
Centrifuge at 4° C., 2000×g for 15 min
Transfer 100 μl supernatant into an Optiplate, also add 25 μl substrate mixture to 2 empty wells to indicate counting efficiency
Add 200 μl Microscint-40 to all wells and count on a Topcount
The 11β HSD1 enzyme assay was carried out following the standard operating procedure described above in u-bottom polypropylene 96 well plates or 1.5 ml Eppendorf tubes as indicated for each experiment. Subsequent to stopping the enzyme reaction, 100 μl antibody prepared in buffer 3 unless otherwise indicated was added to test samples and 100 μl buffer 3 was added to the NSB samples. The samples were incubated for 1 hour at 37° C. and the chilled on ice for 15 mins. Dextran coated charcoal (50 μl/sample) prepared to the indicated concentration in buffer 3 was added and the samples were mixed (vortex for tubes and aspiration 5 times with an 8-channel pipette for 96 well plates) and chilled for a further 10 min. The samples were centrifuged at 2000×g for 15 min at 4° C. to pellet the charcoal. Aliquots of the supernatant (100 μl) were transferred to an Optiplate and counted on the Topcount in 150-200 μl Microscint 40. In some experiments, aliquots of supernatant were transferred to scintillation vials and counted on the Tricarb LSC in 5 ml Ultima Gold scintillant.
Substrate saturation was examined. The enzyme assay was carried out exactly described in the methods section, in Buffer 3 with 10 μg/well microsomal protein and with [cold cortisone] as indicated. [3H]-cortisone was 0.5 μCi/sample throughout. The reaction was stopped after 30 min by the addition of 10 μl stop solution. The RIA was carried out exactly as indicated in the methods section.
It is reported that DMSO can both increase and reduce microsomal enzyme activity, depending on the concentration, presumably due to effects on the microsomal membranes.

T1 sequence (P28845 whole entry): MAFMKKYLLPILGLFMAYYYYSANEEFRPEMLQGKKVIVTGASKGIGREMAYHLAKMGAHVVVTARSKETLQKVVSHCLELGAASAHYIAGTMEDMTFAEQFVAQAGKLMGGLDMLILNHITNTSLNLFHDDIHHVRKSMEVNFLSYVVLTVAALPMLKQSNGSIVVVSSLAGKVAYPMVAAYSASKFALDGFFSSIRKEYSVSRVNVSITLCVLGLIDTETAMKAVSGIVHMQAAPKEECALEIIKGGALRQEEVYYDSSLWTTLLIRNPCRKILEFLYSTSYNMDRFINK
T2 sequence (P28845 whole entry): as above

Structure (SMILES): C[C@]12CCC(=O)C=C1CC[C@@H]1[C@@H]2C(=O)C[C@@]2(C)[C@H]1CC[C@]2(O)C(=O)CO [cortisone, reference compound]
- Km [1]: 0.66 µM
- Km (Human 11βHSD1): 0.7 µM
